Values quoted from earlier work in patent US20130115264A1, “IMPLANTABLE RASAGILINE COMPOSITIONS AND METHODS OF TREATMENT THEREOF” (Endo Pharmaceuticals Solutions Inc., priority 2011, published 2013).
Where a name gives a salt, the structure may show the parent alone.

Columns and labels:
[1] = system: MAO-B; conditions: ex vivo, brain, liver and intestinal tissues
[2] = in vivo
[3] = oral dosage form

Compound	MAO-B inhibition [1]	half-life [2]	oral bioavailability [3] [%]
C#CCN[C@@H]1CCc2ccccc21 [rasagiline, R-(+)-N-propargyl-1-aminoindan]	potent, irreversible MAO-B selective inhibitor	about 3 hours	
C#CCN[C@@H]1CCc2ccccc21 [rasagiline mesylate]			~35
